Assay results taken from PubChem BioAssay AID1259407 (Chemical Carcinogenesis Research Information System (CCRIS), 2018).
Active and inactive are the calls of the source. How the calls were made is not given here.

Tested on: CCRIS mutagenicity, Ames/micronucleus/aberration tests
Assay: CCRIS mutagenicity studies

Cc1cc(-c2cc(C)c(N)c(C)c2)cc(C)c1N was tested, and the mutagenic call (Test System: AMES SALMONELLA TYPHIMURIUM, Strain/Indicator: TA97, Metabolic Activation: HAMSTER, LIVER, S-9, AROCLOR 1254 (10%), Method: PREINCUBATION) was “inactive; negative”, the mutagenic call (Test System: AMES SALMONELLA TYPHIMURIUM, Strain/Indicator: TA97, Metabolic Activation: HAMSTER, LIVER, S-9, AROCLOR 1254 (30%), Method: PREINCUBATION) was “inactive; negative” and the mutagenic call (Test System: AMES SALMONELLA TYPHIMURIUM, Strain/Indicator: TA97, Metabolic Activation: NONE, Method: PREINCUBATION) was “inactive; negative”. The mutagenic call (Test System: AMES SALMONELLA TYPHIMURIUM, Strain/Indicator: TA97, Metabolic Activation: RAT, LIVER, S-9, AROCLOR 1254 (10%), Method: PREINCUBATION) was “inactive; negative”, the mutagenic call (Test System: AMES SALMONELLA TYPHIMURIUM, Strain/Indicator: TA97, Metabolic Activation: RAT, LIVER, S-9, AROCLOR 1254 (30%), Method: PREINCUBATION) was “inactive; negative” and the mutagenic call (Test System: AMES SALMONELLA TYPHIMURIUM, Strain/Indicator: TA98, Metabolic Activation: HAMSTER, LIVER, S-9, AROCLOR 1254 (10%), Method: PREINCUBATION) was “inactive; negative”. For the same compound, the mutagenic call (Test System: AMES SALMONELLA TYPHIMURIUM, Strain/Indicator: TA98, Metabolic Activation: HAMSTER, LIVER, S-9, AROCLOR 1254 (30%), Method: PREINCUBATION) was “inactive; negative”, the mutagenic call (Test System: AMES SALMONELLA TYPHIMURIUM, Strain/Indicator: TA98, Metabolic Activation: NONE, Method: PREINCUBATION) was “inactive; negative” and the mutagenic call (Test System: AMES SALMONELLA TYPHIMURIUM, Strain/Indicator: TA98, Metabolic Activation: RAT LIVER S-9, AROCLOR 1254, Method: PREINCUBATION) was “inactive; negative”. For the same compound, the mutagenic call (Test System: AMES SALMONELLA TYPHIMURIUM, Strain/Indicator: TA98, Metabolic Activation: RAT, LIVER, S-9, AROCLOR 1254 (10%), Method: PREINCUBATION) was “inactive; negative”, the mutagenic call (Test System: AMES SALMONELLA TYPHIMURIUM, Strain/Indicator: TA98, Metabolic Activation: RAT, LIVER, S-9, AROCLOR 1254 (30%), Method: PREINCUBATION) was “inactive; negative” and the mutagenic call (Test System: AMES SALMONELLA TYPHIMURIUM, Strain/Indicator: TA100, Metabolic Activation: HAMSTER, LIVER, S-9, AROCLOR 1254 (10%), Method: PREINCUBATION) was “inactive; negative”. The mutagenic call (Test System: AMES SALMONELLA TYPHIMURIUM, Strain/Indicator: TA100, Metabolic Activation: HAMSTER, LIVER, S-9, AROCLOR 1254 (30%), Method: PREINCUBATION) was “inactive; negative”, the mutagenic call (Test System: AMES SALMONELLA TYPHIMURIUM, Strain/Indicator: TA100, Metabolic Activation: NONE, Method: PREINCUBATION) was “inactive; negative” and the mutagenic call (Test System: AMES SALMONELLA TYPHIMURIUM, Strain/Indicator: TA100, Metabolic Activation: RAT LIVER S-9, AROCLOR 1254, Method: PREINCUBATION) was “inactive; negative”. The mutagenic call (Test System: AMES SALMONELLA TYPHIMURIUM, Strain/Indicator: TA100, Metabolic Activation: RAT, LIVER, S-9, AROCLOR 1254 (10%), Method: PREINCUBATION) was “inactive; negative”, the mutagenic call (Test System: AMES SALMONELLA TYPHIMURIUM, Strain/Indicator: TA100, Metabolic Activation: RAT, LIVER, S-9, AROCLOR 1254 (30%), Method: PREINCUBATION) was “inactive; negative” and the mutagenic call (Test System: AMES SALMONELLA TYPHIMURIUM, Strain/Indicator: TA1535, Metabolic Activation: HAMSTER, LIVER, S-9, AROCLOR 1254 (10%), Method: PREINCUBATION) was “inactive; negative”. For the same compound, the mutagenic call (Test System: AMES SALMONELLA TYPHIMURIUM, Strain/Indicator: TA1535, Metabolic Activation: HAMSTER, LIVER, S-9, AROCLOR 1254 (30%), Method: PREINCUBATION) was “inactive; negative”, the mutagenic call (Test System: AMES SALMONELLA TYPHIMURIUM, Strain/Indicator: TA1535, Metabolic Activation: NONE, Method: PREINCUBATION) was “inactive; negative” and the mutagenic call (Test System: AMES SALMONELLA TYPHIMURIUM, Strain/Indicator: TA1535, Metabolic Activation: RAT, LIVER, S-9, AROCLOR 1254 (10%), Method: PREINCUBATION) was “inactive; negative”. The mutagenic call (Test System: AMES SALMONELLA TYPHIMURIUM, Strain/Indicator: TA1535, Metabolic Activation: RAT, LIVER, S-9, AROCLOR 1254 (30%), Method: PREINCUBATION) was “inactive; negative”, the mutagenic call (Test System: Ames Salmonella typhimurium, Strain/Indicator: TA102, Metabolic Activation: None, Method: Preincubation) was “inactive; negative” and the mutagenic call (Test System: Ames Salmonella typhimurium, Strain/Indicator: TA102, Metabolic Activation: Rat, liver, S-9, Aroclor 1254, Method: Preincubation) was “inactive; negative”. For the same compound, the mutagenic call (Test System: MOUSE LYMPHOMA, Strain/Indicator: L5178Y (TK+/TK-), Metabolic Activation: RAT, LIVER, S-9, AROCLOR 1254, Method: SUSPENSION/PLATE) was “inactive; negative” and the mutagenic call (Test System: MOUSE LYMPHOMA, Strain/Indicator: L5178Y (TK+/TK-), Metabolic Activation: RAT, LIVER, S-9, Method: SUSPENSION/PLATE) was “inactive; negative”.
With Oc1cccc2sc3ccccc3c12 the mutagenic call (Test System: CHINESE HAMSTER OVARY, Strain/Indicator: CHO-K1-BH4 (HGPRT)/6-THIOGUANINE, Metabolic Activation: RAT, LIVER, S-9, AROCLOR (4%)) was “active; positive”.
For C[N+]1(C)CCOCC1, the mutagenic call (Test System: AMES SALMONELLA TYPHIMURIUM, Strain/Indicator: TA97, Metabolic Activation: NONE, Method: STANDARD PLATE) was “inactive; negative”, the mutagenic call (Test System: AMES SALMONELLA TYPHIMURIUM, Strain/Indicator: TA97, Metabolic Activation: RAT, LIVER, S-9, AROCLOR 1254, Method: STANDARD PLATE) was “inactive; negative” and the mutagenic call (Test System: AMES SALMONELLA TYPHIMURIUM, Strain/Indicator: TA98, Metabolic Activation: NONE, Method: STANDARD PLATE) was “inactive; negative”. For the same compound, the mutagenic call (Test System: AMES SALMONELLA TYPHIMURIUM, Strain/Indicator: TA98, Metabolic Activation: RAT, LIVER, S-9, AROCLOR 1254, Method: STANDARD PLATE) was “inactive; negative”, the mutagenic call (Test System: AMES SALMONELLA TYPHIMURIUM, Strain/Indicator: TA100, Metabolic Activation: NONE, Method: STANDARD PLATE) was “inactive; negative” and the mutagenic call (Test System: AMES SALMONELLA TYPHIMURIUM, Strain/Indicator: TA100, Metabolic Activation: RAT, LIVER, S-9, AROCLOR 1254, Method: STANDARD PLATE) was “inactive; negative”. For the same compound, the mutagenic call (Test System: AMES SALMONELLA TYPHIMURIUM, Strain/Indicator: TA102, Metabolic Activation: NONE, Method: STANDARD PLATE) was “inactive; negative”, the mutagenic call (Test System: AMES SALMONELLA TYPHIMURIUM, Strain/Indicator: TA102, Metabolic Activation: RAT, LIVER, S-9, AROCLOR 1254, Method: STANDARD PLATE) was “inactive; negative” and the mutagenic call (Test System: AMES SALMONELLA TYPHIMURIUM, Strain/Indicator: TA104, Metabolic Activation: NONE, Method: STANDARD PLATE) was “inactive; negative”. The mutagenic call (Test System: AMES SALMONELLA TYPHIMURIUM, Strain/Indicator: TA104, Metabolic Activation: RAT, LIVER, S-9, AROCLOR 1254, Method: STANDARD PLATE) was “inactive; negative”, the mutagenic call (Test System: AMES SALMONELLA TYPHIMURIUM, Strain/Indicator: TA1535, Metabolic Activation: NONE, Method: STANDARD PLATE) was “inactive; negative” and the mutagenic call (Test System: AMES SALMONELLA TYPHIMURIUM, Strain/Indicator: TA1535, Metabolic Activation: RAT, LIVER, S-9, AROCLOR 1254, Method: STANDARD PLATE) was “inactive; negative”. The mutagenic call (Test System: AMES SALMONELLA TYPHIMURIUM, Strain/Indicator: TA1537, Metabolic Activation: NONE, Method: STANDARD PLATE) was “inactive; negative”, the mutagenic call (Test System: AMES SALMONELLA TYPHIMURIUM, Strain/Indicator: TA1537, Metabolic Activation: RAT, LIVER, S-9, AROCLOR 1254, Method: STANDARD PLATE) was “inactive; negative” and the mutagenic call (Test System: AMES SALMONELLA TYPHIMURIUM, Strain/Indicator: TA1538, Metabolic Activation: NONE, Method: STANDARD PLATE) was “inactive; negative”. The mutagenic call (Test System: AMES SALMONELLA TYPHIMURIUM, Strain/Indicator: TA1538, Metabolic Activation: RAT, LIVER, S-9, AROCLOR 1254, Method: STANDARD PLATE) was “inactive; negative”.
CNP(=O)(N(C)C)N(C)C was tested, and the mutagenic call (Test System: AMES SALMONELLA TYPHIMURIUM, Strain/Indicator: TA100, Metabolic Activation: NONE, Method: SUSPENSION) was “inactive; negative” and the mutagenic call (Test System: AMES SALMONELLA TYPHIMURIUM, Strain/Indicator: TA100, Metabolic Activation: RAT, LIVER, S-9, AROCLOR 1254, Method: SUSPENSION) was “active; positive”.
With Fc1ccc2c3c(ccc2c1)-c1cccc2cccc-3c12 the mutagenic call (Test System: AMES SALMONELLA TYPHIMURIUM, Strain/Indicator: TA97A, Metabolic Activation: RAT, LIVER, S-9, AROCLOR 1254, Method: PREINCUBATION) was “active; positive”, the mutagenic call (Test System: AMES SALMONELLA TYPHIMURIUM, Strain/Indicator: TA98, Metabolic Activation: RAT, LIVER, S-9, AROCLOR 1254, Method: PREINCUBATION) was “active; positive” and the mutagenic call (Test System: AMES SALMONELLA TYPHIMURIUM, Strain/Indicator: TA100, Metabolic Activation: RAT, LIVER, S-9, AROCLOR 1254, Method: PREINCUBATION) was “active; positive”.
